Source: patent publication US20170191058A1, “PERFORIN 2 DEFENSE AGAINST INVASIVE AND MULTIDRUG RESISTANT PATHOGENS” (priority 2012, published 2017)

Tests used:
P-2 mRNA = P-2 mRNA expression in mEF by TAQMAN PCR after cytokine treatment; assay type: cell-based, murine; settings: added singly, 14 hours
Experimental: (§1) Murine embryonic fibroblasts (FIG. 14A), a rectal cancer cell line (FIG. 14B), myoblast cell line (FIG. 14C), and an ovarian cell line (FIG. 14D) were treated for 14 hours with 100 U/ml interferon-α, interferon-β, and interferon-γ treated. LPS was treated at 1 ng/ml; IL-1α at 10 U/ml, IL-1β at 1 ng/ml, and TNFα at 20 ng/mL. A human embryonic kidney cell line (FIG. 14E) and cervical cancer cell line (FIG. 14F) were treated with human IFN-α at 150 U/ml, IFN-β and IFN-γ at 100 U/ml. The BV2 microglial cell line was stimulated with 100 U/ml of murine Interferon-γ for 14 hours to upregulate P-2 mRNA and protein. mEF treated with IFN-γ for 14 hours (mEF), or IFN-γ for 14 hours followed by 1 hour of treatment with […] MG-132 (mEF+MG132) (FIG. 14G). Human primary keratinocytes were analyzed for protein expression with indicated recombinant human IFN treatment (FIG. 14H). mEF were treated with E. coli or M. smegmatis. At indicated time points, cells were harvested and analyzed for P-2 mRNA and compared to uninfected controls by TAQMAN™ PCR. (FIG. 14I) mEF were either not stimulated, or stimulated for 14 hours with IFN-γ at 100 U/ml. After stimulation, mEF were infected with M. smegmatis and analyzed for colony forming units at indicated time points.
Recombinant murine IL-1α, IL-1β, TNFα, IFN-γ, IFN-α, IFN-β recombinant human IFN-γ, IFN-β were purchased from preprotech. Recombant human IFN-α was purchased from R&D systems. Murine […] was supplemented at 10 U/mL where indicated. Murine IL-1β was supplemented at 1 ng/ml. Murine TNFα was supplemented at 20 ng/ml. Murine IFN-α, IFN-β and IFN-γ was supplemented with 100 U/ml. Human IFN-α was supplemented where indicated in at a concentration of 150 U/ml where indicated. Human IFN-β and IFN-γ was supplemented at a concentration of 100 U/ml. LPS was added at a concentration of 1 ng/ml.
RNA was extracted from cells following RNeasy (Qiagen) instructions. One μg of RNA was converted to cDNA using QuantiTect Reverse Transcription kit (Qiagen) following supplier's protocol. qRT-PCR was performed using TAQMAN® Gene Expression Assays (Applied Biosystems) for murine Mpeg1 and GAPDH, with the later serving as a housekeeping control gene. For human tissues, human Mpeg1 and GapDH probes were utilized. All assays were performed on the Applied Biosystems 7300 PCR platform.

M. smegmatis = assay: Gentamycin protection assay: M. smegmatis in IFN-preinduced mEF; assay type: cell-based, Mycobacterium smegmatis; settings: uninduced mEF delayed by about 16 h
Experimental: as §1, with “points. […]” for “points.”

P-2 = P-2 expression in macrophages, BMDM/DC and microglia after LPS and IFN-γ; assay type: cell-based, murine; settings: LPS and IFN-γ given together, microglia
Experimental: BMDM/DC were differentiated from murine bone marrow for 10 days in the presence GM-CSF and then stimulated with (FIG. 9A) LPS ([…]) and IFNγ (100 U/ml) or (FIG. 9B) poly(I:C) (3 mg/ml) for 48 hr. (FIG. 9C) BV2 microglial cells were stimulated for 24 hr with IFNγ (100 U/ml). (FIG. 9D) RAW cells were stimulated for 24 hr with LPS (Ing/ml) and IFNγ (100 U/ml). Cells were harvested at the indicated time points and analyzed for P-2 message expression by TAQMAN™ RT-PCR, relative to GAPDH.
RNA was extracted from cells according to RNeasy (Qiagen) instructions. 1 μg of RNA was converted to cDNA using QuantiTect Reverse Transcription Kit (Qiagen) RT-PCR was performed using TAQMAN® Gene Expression Assays (Applied Biosystems) for murine Mpeg-1 and GAPDH, as a housekeeping control gene. All assays were performed on Applied Biosystems 7300 PCR platform.

Substance: IFNγ
- P-2 mRNA induction in mEF (P-2 mRNA): up-regulates P-2 mRNA
- time to kill intracellular M. smegmatis (M. smegmatis): 1 to 5 h
- P-2 mRNA and protein expression (P-2): upregulate P-2 mRNA and protein expression
